Read-outs that look alike come from different tables or passages of the source. Blank lines part the entries; values can stand above or below the compound they belong to.
How the values were obtained:
[1] = Inhibition of ovalbumin (Ova) oxidative degradation by ONOO radical; conditions: for Concentration that completely inhibited the oxidative effect of ONOO•: 5 mM ONOO•; for Inhibitory action toward proteolysis by ONOO radical: Ova; for Inhibition effect on degradation of protein due to ONOO radical: 120 min, pH 7.2
Protocol: (§1) ClO•, OH•, and NO3• were prepared as three typical active oxygen species produced in the body. Clo• was prepared using a method wherein sodium hypochlorite was diluted to a pH 6.5 with distilled water, OH• by a partially modified Fenton method (B. Halliwell, et al., Analytical Biochmistry, No. 165, p. 215-219, 1987), and NO3• by a modified quenching flow reactor method (R. Radi, et al., Journal of Biological Chemistry, Vol. 266, p. 4244-4250, 1991). Next, Ova was dissolved in pH 7.2 buffered physiological saline to a concentration of 2.5 mg/mL, each concentration of antioxidant was added at a volume ratio of 10:1 with respect to the protein solution, the solution was let stand for 30 min at room temperature, each concentration of active oxygen was added in the same manner at a volume ratio of 10:1 with respect to protein solution, and ClO• oxidation was performed for 30 min at 37° C., OH• oxidation for 60 min at 37° C., and NO3 oxidation for 120 min at 37° C. After the reaction, sodium dodecylsulfate-polyacrylamide gel electrophoresis (SDS-PAGE) was performed on each sample, the gel was stained with Coomassie blue R250, and the Ova degradation inhibition rate was calculated from the densitometer reading. An accurate degradation inhibition rate was calculated using the following formula from the proteolytic inhibition activity obtained by performing GPC-HPLC using a TSKG-3,000SW column directly on the reacted samples.
(§2) Using the same test methods as described in (1) above, a comparison of inhibitory activity by various natural extracts on the Ova degradation by active oxygen was performed. The concentrations of the natural extracts tested were 5 mg/mL as solids.

[2] = Inhibition of ovalbumin (Ova) oxidative degradation by OH radical; conditions: for Inhibitory action toward proteolysis by OH radical: Ova; for OH radical inhibitory concentration: concentration that completely inhibits the proteolytic action of 10 mM OH•; for Inhibition effect on degradation of protein due to OH radical: 60 min, pH 7.2
Protocol: as §1, §2

[3] = Inhibition of ovalbumin (Ova) oxidative degradation by ClO radical; conditions: for Inhibitory action toward proteolysis by ClO radical: Ova; for Rank of ClO•-scavenging strength (in words): complete inhibition of protein degradation by 10 mM ClO•, comparison of Table 3; for ClO radical inhibitory concentration: concentration that completely inhibits oxidative degradation of protein by 10 mM ClO•; for Inhibition effect on degradation of protein due to ClO radical: 30 min, pH 7.2
Protocol: as §1, §2
The strength of antioxidant activity between peptides with antioxidant activity and sulfur-containing amino acids was compared with respect to ClO•, and between various antioxidants with antioxidant activity with respect to OH•.

[4] = system: glycated hemoglobin (HbAlc) in the blood; test: Lowering of glycated hemoglobin in the blood of diabetic model GK rats; assay type: in vivo; conditions: 100 mg/kg orally for 28 days, FIG. 5
Protocol: Using the diabetes model animal GK rats (Y. Ihara, et al. FEBS Letters, Vol. 473, p. 24-26, 2000), the effectiveness of single doses of various antioxidants and combined doses of antioxidants in lowering the level of glycated hemoglobin (HbAlc) in the blood was compared.
As the ClO•-scavenger 200 mg/kg of anserine-carnosine mixture derived from chicken extract, as the OH•-scavenger wheat grass extract (total content of caffeic acid analogues 10 mg/kg), as the ONOO•-scavenger 100 mg/kg of V.C., and a composition containing all three antioxidants were administered orally to the GK rats for 28 days, and the blood HbAlc levels were measured at the end of dosing.

human red blood cells = test: Microchannel (MC) transit capability of human red blood cells damaged by active oxygen; assay type: cell-based
Protocol: A microchannel (hereinafter, MC), which is a capillary model, is a device that measures hemorheology, i.e., the capability of blood to circulate through capillaries. Factors affecting hemorheology include meals, oxidative stress, etc. In the present invention the effects of the three active oxygen species produced in the body on the MC transit capability of human red blood cells were tested, and the effectiveness of various antioxidants in preventing the harmful effects of active oxygen were compared.
Next, the effectiveness of various antioxidants in preventing the MC transit damage due to various active oxygen species was measured using red blood cells. […] (2.5 mM) as the ONOO•-scavenger were used. These three types were mixed together and used as the antioxidant mixture.
A microchannel (MC), which is a capillary model, is a device that measures hemorheology, i.e., the capability of blood to circulate through capillaries. Factors effecting hemorheology include meals, oxidative stress, etc. In the present Example, the effects of the three active oxygen species produced in the body on the MC transit capability of human red blood cells were tested.
For the test method, blood from healthy human volunteers was subjected a Ficoll-Pague centrifuge (made by Amersham-Pharmacia Biotech) to separate a red blood cell fraction, and the MC transit time of the red blood (final concentration of hematocrit is 10%) treated by various active oxygen species was measured by an MC FAN KH-3A (channel width 7 μm, MC Laboratory, Inc.).

cholesterol in the blood = conditions: known from the literature (Herrera-Arellano 2004; Kim 2003); cited from earlier work
[5] = antioxidant 5 mM, 10 mM OH radical
[6] = antioxidant 5 mM, 10 mM ClO radical
[7] = antioxidant 50 μM, 10 mM OH radical
[8] = antioxidant 50 μM, 10 mM ClO radical
[9] = antioxidant 20 μM, 10 mM OH radical
[10] = antioxidant 20 μM, 10 mM ClO radical

Compound: O=C1O[C@H]([C@@H](O)CO)C([O-])=C1O.[Na+] [sodium V.C.]
Concentration that completely inhibited the oxidative effect of ONOO• [1]: 1 mM

Compound: O=C1O[C@H]([C@@H](O)CO)C(O)=C1O [Vitamin C, L-ascorbic acid]
Inhibitory action toward proteolysis by OH radical [2, 5]: 0%
Inhibitory action toward proteolysis by ClO radical [3, 6]: 67%
Decrease of blood HbAlc level [4]: 0.3%
Inhibition of red blood cell MC transit damage due to ONOO• (human red blood cells; hematocrit 10%, 5 mM ONOO radical, FIG. 10): inhibited the damage
Concentration that completely inhibited the oxidative effect of ONOO• [1]: 1 mM
Inhibitory action toward proteolysis by ONOO radical ([1]; antioxidant 5 mM): 100%

Compound: N[C@@H](CCC(=O)N[C@@H](CS)C(=O)NCC(=O)O)C(=O)O [Reduced glutathione, reduced glutathione]
Rank of ClO•-scavenging strength (in words) [3]: most potent
ClO radical inhibitory concentration [3]: 2.5 mM

Compound: O=C(O)/C=C/c1ccc(O)c(O)c1 [Caffeic acid, caffeic acid]
OH radical inhibitory concentration [2]: 4.0 µM
OH radical inhibitory concentration ([2]; listed as caffeic acid): 2.5 µM

Compound: COc1cc(/C=C/C(=O)O)ccc1O [Ferulic acid, ferulic acid]
Inhibitory action toward proteolysis by OH radical [2, 7]: 100%
OH radical inhibitory concentration [2]: 2.5 µM
Effect of lowering the level of cholesterol in the blood (in words) (cholesterol in the blood): have an effect of lowering the level of cholesterol in the blood
Inhibitory action toward proteolysis by ClO radical [3, 8]: 7%
Inhibitory action toward proteolysis by ONOO radical ([1]; antioxidant 50 μM): 34%

Concentration showing degradation inhibitory activity against ONOO• [1]: 10 µM
Compound: CC1=C(/C=C/C(C)=C/C=C/C(C)=C/C=C/C=C(C)/C=C/C=C(C)/C=C/C2=C(C)CCCC2(C)C)C(C)(C)CCC1 [B-carotene, β-carotene]
Inhibitory action toward proteolysis by OH radical [2, 9]: 100%
OH radical inhibitory concentration [2]: 0.5 µM
Inhibitory action toward proteolysis by ClO radical [3, 10]: 38%
Inhibitory action toward proteolysis by ONOO radical ([1]; antioxidant 20 μM): 74%

Concentration at which oxidative degradation of Ova by OH• was completely inhibited ([2]; FIG. 1, 10 mM OH radical, tested concentration): 5 µM
Inhibition of Ova oxidative degradation by ClO• (in words) ([3]; FIG. 1, 10 mM ClO radical, β-carotene 20 μM, EGCG 500 μM): faint inhibitory activity
Concentration showing degradation inhibitory activity against ONOO• ([1]; FIG. 1, said to exceed physiologically relevant concentrations): 500 µM
Compound: O=C(O[C@@H]1Cc2c(O)cc(O)cc2O[C@@H]1c1cc(O)c(O)c(O)c1)c1cc(O)c(O)c(O)c1 [Epigallocatechin gallate, epigallocatechin gallate]
OH radical inhibitory concentration [2]: 2.5 µM
Inhibition of red blood cell MC transit damage due to OH• (human red blood cells; antioxidant 50 μM, FIG. 4): completely inhibited

Inhibition effect on degradation of protein due to OH radical ([2]; 50 μM): 100
Inhibition effect on degradation of protein due to ClO radical ([3]; 50 μM): 0
Inhibition effect on degradation of protein due to ONOO radical ([1]; 50 μM): 0
Compound: COC1=C(OC)C(=O)C(C/C=C(\C)CC/C=C(\C)CC/C=C(\C)CC/C=C(\C)CC/C=C(\C)CC/C=C(\C)CC/C=C(\C)CC/C=C(\C)CC/C=C(\C)CCC=C(C)C)=C(C)C1=O [CoQ10]
Inhibition of red blood cell MC transit damage due to OH• (human red blood cells; hematocrit 10%, 10 mM OH radical, FIG. 10): inhibited the damage

Inhibition effect on degradation of protein due to OH radical ([2]; 5 mM): 20
Inhibition effect on degradation of protein due to ClO radical ([3]; 5 mM): 100
Inhibition effect on degradation of protein due to ONOO radical ([1]; 5 mM): 20
Compound: CC(=O)N[C@@H](CS)C(=O)O [N-acetyl-L-cysteine]
Rank of ClO•-scavenging strength (in words) [3]: most potent
ClO radical inhibitory concentration [3]: 2.5 mM

Inhibition effect on degradation of protein due to OH radical ([2]; 5 mM): 62
Inhibition effect on degradation of protein due to ClO radical ([3]; 5 mM): 100
Inhibition effect on degradation of protein due to ONOO radical ([1]; 5 mM): 45
Compound: CSCC[C@H](N)C(=O)O [Methionine, methionine]
ClO radical inhibitory concentration [3]: 5.0 mM

Compound: Cc1c(C)c2c(c(C)c1O)CC[C@@](C)(CCC[C@H](C)CCC[C@H](C)CCCC(C)C)O2 [Vitamin E, α-tocopherol]
Inhibitory action toward proteolysis by OH radical [2, 5]: 98%
Rank of OH•-scavenging strength (in words) ([2]; complete inhibition of proteolysis by 10 mM OH•, comparison of Table 4): weakest antioxidant activity
OH radical inhibitory concentration [2]: 2500 µM
Antioxidant activity against OH• (inhibition of proteolysis) relative to astaxanthin ([2]; fraction of the activity of the carotenoid astaxanthin): approximately 1/5000
Inhibitory action toward proteolysis by ClO radical [3, 6]: 0%
Inhibitory action toward proteolysis by ONOO radical ([1]; antioxidant 5 mM): 22%

Inhibition effect on degradation of protein due to OH radical ([2]; 5 mM): 15
Inhibition effect on degradation of protein due to ClO radical ([3]; 5 mM): 100
Inhibition effect on degradation of protein due to ONOO radical ([1]; 5 mM): 22
Compound: N[C@@H](CS)C(=O)O [Cysteine, L-cysteine]
Rank of ClO•-scavenging strength (in words) [3]: most potent
ClO radical inhibitory concentration [3]: 2.5 mM

Compound: N[C@@H](CS(=O)(=O)O)C(=O)O [Cysteic acid, cysteic acid]
ClO radical inhibitory concentration [3]: 7.5 mM

Compound: O=c1c(O)c(-c2ccc(O)c(O)c2)oc2cc(O)cc(O)c12 [Quercetin, quercetin]
Inhibitory action toward proteolysis by OH radical [2, 7]: 100%
OH radical inhibitory concentration [2]: 2.5 µM
Inhibitory action toward proteolysis by ClO radical [3, 8]: 5%
Inhibitory action toward proteolysis by ONOO radical ([1]; antioxidant 50 μM): 16%

Compound: CC1=C(/C=C/C(C)=C/C=C/C(C)=C/C=C/C=C(C)/C=C/C=C(C)/C=C/C2=C(C)C(=O)[C@@H](O)CC2(C)C)C(C)(C)C[C@H](O)C1=O [Astaxanthin, astaxanthin]
Inhibitory action toward proteolysis by OH radical [2, 9]: 100%
OH radical inhibitory concentration [2]: 0.5 µM
Inhibitory action toward proteolysis by ClO radical [3, 10]: 24%
Inhibitory action toward proteolysis by ONOO radical ([1]; antioxidant 20 μM): 28%

Compound: alliin
ClO radical inhibitory concentration [3]: 7.5 mM

Compound: O=C(/C=C/c1ccc(O)c(O)c1)O[C@@H]1C[C@](O)(C(=O)O)C[C@@H](O)[C@H]1O [Chlorogenic acid, chlorogenic acid]
Effect of lowering the level of cholesterol in the blood (in words) (cholesterol in the blood): have an effect of lowering the level of cholesterol in the blood

Concentration showing degradation inhibitory activity against ONOO• [1]: 500 µM
Compound: Oc1cc(O)c2c(c1)OC(c1ccc(O)c(O)c1)C(O)C2 (centres unmarked) [Catechins, catechins]
Inhibitory action toward proteolysis by OH radical [2, 7]: 100%
OH radical inhibitory concentration [2]: 2.5 µM
Inhibitory action toward proteolysis by ClO radical [3, 8]: 0%
Inhibitory action toward proteolysis by ONOO radical ([1]; antioxidant 50 μM): 58%

Compound: Cn1cncc1C[C@H](NC(=O)CCN)C(=O)O [Anserine, anserine]
ClO radical inhibitory concentration [3]: 5.0 mM

Compound: NCCC(=O)N[C@@H](Cc1cnc[nH]1)C(=O)O [Carnosine, carnosine]
ClO radical inhibitory concentration [3]: 5.0 mM

Reference: patent publication US7727961B2, “Antioxidant constituents” (Tokai Bussan Co., Ltd., priority 2004, dated 2010)
